{"source": "ChEMBL document CHEMBL6096661", "about": "“Synthesis, biological evaluation and mechanism study of a novel indole-pyridine chalcone derivative as antiproliferative agent against tumor cells through dual targeting tubulin and HK2” (Eur J Med Chem, 2025)", "key": {"MDA-MB-231 [1]": {"system": "MDA-MB-231", "assay": "Antiproliferative activity against human MDA-MB-231 cells assessed as reduction in cell proliferation incubated for 48 hrs by CCK-8 assay", "type": "functional, cell-based", "conditions": "MDA-MB-231, 48 h"}, "HCT-116": {"system": "HCT-116", "assay": "Antiproliferative activity against human HCT-116 cells assessed as inhibition of cell growth incubated for 48 hrs by CCK-8 assay", "type": "functional, cell-based", "conditions": "HCT-116, 48 h"}, "BXPC-3": {"system": "BXPC-3", "assay": "Antiproliferative activity against human BXPC-3 cells assessed as inhibition of cell growth incubated for 48 hrs by CCK-8 assay", "type": "functional, cell-based", "conditions": "BXPC-3, 48 h"}, "[2]": {"assay": "Cytotoxicity against green monkey Vero cells assessed as inhibition of cell growth incubated for 48 hrs by CCK-8 assay", "type": "toxicity, cell-based", "conditions": "African green monkey (Chlorocebus sabaeus)"}, "[3]": {"assay": "Selectivity ratio of IC50 for cytotoxicity against green monkey Vero cells to IC50 for antiproliferative activity against human LoVo cells", "type": "toxicity, cell-based", "conditions": "Vero cells versus LoVo cells, read-out: Ratio IC50"}, "MDA-MB-231 [4]": {"system": "MDA-MB-231", "assay": "Inhibition of colony formation in human MDA-MB-231 cells assessed as reduction in number of colonies at 1 uM incubated for 8 days by crystal violet staining based assay", "type": "functional, cell-based", "conditions": "time 8.0 day"}, "MDA-MB-231 [5]": {"system": "MDA-MB-231", "assay": "Induction of morphological changes in human MDA-MB-231 assessed as cell contraction at 0.5 to 2 uM incubated for 48 hrs by microscopic analysis", "type": "functional, cell-based", "conditions": "dose 0.5-2 µM"}, "MDA-MB-231 [6]": {"system": "MDA-MB-231", "assay": "Antiproliferative activity against human MDA-MB-231 cells assessed as inhibition of cell proliferation incubated for 1 day by CCK-8 assay", "type": "functional, cell-based", "conditions": "MDA-MB-231, 24 h"}, "LoVo": {"system": "LoVo", "assay": "Antiproliferative activity against human LoVo cells assessed as inhibition of cell proliferation incubated for 3 days by CCK-8 assay", "type": "functional, cell-based", "conditions": "72 h"}, "Tubulin (Homo sapiens) [7]": {"target": "T1, Tubulin (Homo sapiens) (UniProt P68371+Q9H4B7+P0DPH7+P68366+Q13509+Q71U36+P04350+Q3ZCM7+P07437+P68363+Q9BQE3+Q6PEY2+Q13885+Q9BVA1+Q9BUF5)", "assay": "Disruption of microtubule network in human MDA-MB-231 cells assessed as reduced microtubule network at 1 to 2 uM incubated for 24 hrs by DAPI staining based fluorescence microscopic analysis", "type": "cell-based", "conditions": "dose 1-2 µM"}, "Tubulin (Homo sapiens) [8]": {"target": "T1, Tubulin (Homo sapiens)", "assay": "Disruption of microtubule network in human MDA-MB-231 cells assessed as atrophy fiber structure at 1 to 2 uM incubated for 24 hrs by DAPI staining based fluorescence microscopic analysis", "type": "cell-based", "conditions": "dose 1-2 µM"}, "Tubulin (Homo sapiens) [9]": {"target": "T1, Tubulin (Homo sapiens)", "assay": "Disruption of microtubule network in human MDA-MB-231 cells assessed as point-like fiber structure at 1 to 2 uM incubated for 24 hrs by DAPI staining based fluorescence microscopic analysis", "type": "cell-based", "conditions": "dose 1-2 µM"}, "MDA-MB-231 [10]": {"system": "MDA-MB-231", "assay": "Induction of apoptosis in human MDA-MB-231 cells assessed as increase in total apoptotic cells at 0.5 to 2 uM by annexin-V/PI double staining based flow cytometric analysis", "type": "functional, cell-based", "conditions": "dose 0.5-2 µM"}, "MDA-MB-231 [11]": {"system": "MDA-MB-231", "assay": "Induction of cell cycle arrest in human MDA-MB-231 cells assessed as increased proportion of cells at S phase at 0.5 to 2 uM by flow cytometric analysis", "type": "functional, cell-based", "conditions": "dose 0.5-2 µM"}, "MDA-MB-231 [12]": {"system": "MDA-MB-231", "assay": "Induction of apoptosis in human MDA-MB-231 cells assessed as pyknotic bright nuclei at 0.5 to 2 uM incubated for 24 hrs by Hoechst 33342 staining based fluorescence microscopic analysis", "type": "functional, cell-based", "conditions": "dose 0.5-2 µM"}, "MDA-MB-231 [13]": {"system": "MDA-MB-231", "assay": "Induction of apoptosis in human MDA-MB-231 cells assessed as upregulation of cleaved-caspase 3 level by Western blotting analysis", "type": "functional, cell-based", "conditions": "dose 0.5-2 µM"}, "MDA-MB-231 [14]": {"system": "MDA-MB-231", "assay": "Induction of apoptosis in human MDA-MB-231 cells assessed as upregulation of Bax level by Western blotting analysis", "type": "functional, cell-based", "conditions": "dose 0.5-2 µM"}, "MDA-MB-231 [15]": {"system": "MDA-MB-231", "assay": "Induction of apoptosis in human MDA-MB-231 cells assessed as decrease in HIF-1a level by Western blotting analysis", "type": "functional, cell-based", "conditions": "dose 0.5-2 µM"}, "MDA-MB-231 [16]": {"system": "MDA-MB-231", "assay": "Induction of apoptosis in human MDA-MB-231 cells assessed as decrease in Cyclin A level by Western blotting analysis", "type": "functional, cell-based", "conditions": "dose 0.5-2 µM"}, "Hexokinase-2": {"target": "T2, Hexokinase-2 (Homo sapiens, UniProt P52789)", "T2 sequence (P52789 whole entry)": "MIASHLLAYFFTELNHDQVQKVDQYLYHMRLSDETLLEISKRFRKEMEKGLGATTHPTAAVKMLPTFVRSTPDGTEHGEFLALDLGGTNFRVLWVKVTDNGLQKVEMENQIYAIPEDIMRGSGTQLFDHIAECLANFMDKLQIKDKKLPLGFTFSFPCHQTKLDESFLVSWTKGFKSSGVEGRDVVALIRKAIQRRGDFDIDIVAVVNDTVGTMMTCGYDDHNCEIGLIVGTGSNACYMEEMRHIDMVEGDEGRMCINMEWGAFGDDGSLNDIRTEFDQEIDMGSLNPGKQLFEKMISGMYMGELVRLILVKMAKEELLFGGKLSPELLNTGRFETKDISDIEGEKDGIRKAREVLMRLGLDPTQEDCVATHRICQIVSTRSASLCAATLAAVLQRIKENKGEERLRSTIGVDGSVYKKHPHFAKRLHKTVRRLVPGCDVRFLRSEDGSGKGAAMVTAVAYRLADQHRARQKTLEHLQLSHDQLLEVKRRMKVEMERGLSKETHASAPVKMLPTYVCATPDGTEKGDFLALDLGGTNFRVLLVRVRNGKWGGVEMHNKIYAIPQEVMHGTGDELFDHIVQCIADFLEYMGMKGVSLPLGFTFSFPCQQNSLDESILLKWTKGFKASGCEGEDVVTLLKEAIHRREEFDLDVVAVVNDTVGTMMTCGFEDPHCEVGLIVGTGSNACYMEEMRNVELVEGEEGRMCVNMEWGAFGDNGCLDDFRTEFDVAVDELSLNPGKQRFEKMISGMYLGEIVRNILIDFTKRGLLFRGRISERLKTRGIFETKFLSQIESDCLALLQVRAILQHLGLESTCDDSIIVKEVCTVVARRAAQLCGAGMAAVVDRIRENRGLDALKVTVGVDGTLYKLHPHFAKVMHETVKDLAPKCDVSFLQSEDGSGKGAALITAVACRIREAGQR", "assay": "Inhibition of human HK2 transfected in Escherichia coli BL21 (DE) incubated for 10 mins"}, "Mitochondrial membrane [17]": {"system": "Mitochondrial membrane", "assay": "[…] in human MDA-MB-231 cells at 0.5 uM by JC-1 fluorescent probe based flow cytometric analysis (reference value: 2.56 %)"}, "Mitochondrial membrane [18]": {"system": "Mitochondrial membrane", "assay": "[…] in human MDA-MB-231 cells at 2.0 uM by JC-1 fluorescent probe based flow cytometric analysis (reference value: 2.56 %)"}, "MDA-MB-231 [19]": {"system": "MDA-MB-231", "assay": "Induction of ROS generation in human MDA-MB-231 cells assessed as increase in green fluorescence at 0.5 uM incubated for 24 hrs by DCFH-DA staining based flow cytometric analysis (reference value: 62.3 %)", "type": "functional"}, "MDA-MB-231 [20]": {"system": "MDA-MB-231", "assay": "Induction of ROS generation in human MDA-MB-231 cells assessed as increase in green fluorescence at 1 uM incubated for 24 hrs by DCFH-DA staining based flow cytometric analysis (reference value: 62.3 %)", "type": "functional"}, "MDA-MB-231 [21]": {"system": "MDA-MB-231", "assay": "Induction of ROS generation in human MDA-MB-231 cells assessed as increase in green fluorescence incubated for 24 hrs by DCFH-DA staining based flow cytometric analysis relative to control", "type": "functional, cell-based", "conditions": "dose 0.5-2 µM"}}, "note": "Active and inactive are the calls of the source. The rule behind the calls is not given here."}
{"compound": "O=C(/C=C/c1cn(S(=O)(=O)c2ccc([N+](=O)[O-])cc2)c2ccc(N3CCOCC3)cc12)c1cccnc1", "values": [{"measurement": "IC50", "setting": "MDA-MB-231 [1]", "result": 0.707, "unit": "µM"}, {"measurement": "IC50", "setting": "HCT-116", "result": 0.512, "unit": "µM"}, {"measurement": "IC50", "setting": "BXPC-3", "result": 1.27, "unit": "µM"}, {"measurement": "IC50 at 48 h", "setting": "[2]", "result": 2.31, "unit": "µM"}, {"measurement": "selectivity ratio", "setting": "[3]", "result": 5}, {"measurement": "inhibition", "setting": "MDA-MB-231 [4]", "result": "Active"}, {"measurement": "Activity", "setting": "MDA-MB-231 [5]", "result": "Active"}, {"measurement": "IC50", "setting": "MDA-MB-231 [6]", "result": 1.64, "unit": "µM"}, {"measurement": "IC50", "setting": "LoVo", "result": 0.551, "unit": "µM"}, {"measurement": "Activity", "setting": "Tubulin (Homo sapiens) [7]", "result": "Active"}, {"measurement": "Activity", "setting": "Tubulin (Homo sapiens) [8]", "result": "Active"}, {"measurement": "Activity", "setting": "Tubulin (Homo sapiens) [9]", "result": "Active"}, {"measurement": "Activity", "setting": "MDA-MB-231 [10]", "result": "Time-dependent-effect"}, {"measurement": "Activity", "setting": "MDA-MB-231 [11]", "result": "Active"}, {"measurement": "Activity", "setting": "MDA-MB-231 [12]", "result": "Active"}, {"measurement": "Activity", "setting": "MDA-MB-231 [13]", "result": "Dose-dependent-effect"}, {"measurement": "Activity", "setting": "MDA-MB-231 [14]", "result": "Dose-dependent-effect"}, {"measurement": "Activity", "setting": "MDA-MB-231 [15]", "result": "Dose-dependent-effect"}, {"measurement": "Activity", "setting": "MDA-MB-231 [16]", "result": "Dose-dependent-effect"}, {"measurement": "IC50", "setting": "Hexokinase-2", "result": 1.56, "unit": "µM"}, {"measurement": "Activity", "setting": "Mitochondrial membrane [17]", "result": 5.5, "unit": "%"}, {"measurement": "Activity", "setting": "Mitochondrial membrane [18]", "result": 32.3, "unit": "%"}, {"measurement": "Activity", "setting": "MDA-MB-231 [19]", "result": 88.4, "unit": "%"}, {"measurement": "Activity", "setting": "MDA-MB-231 [20]", "result": 90.4, "unit": "%"}, {"measurement": "Activity", "setting": "MDA-MB-231 [21]", "result": "Dose-dependent-effect"}]}
